Test results from patent publication US7977082B2, “Isomaltulose synthases, polynucleotides encoding them and uses therefor” (The University of Queensland of St. Lucia, priority 2001, dated 2011).

Tests used:
[1] = tested on: P. dispersa 68J; experiment: Growth in BP medium with different sugars; type: cell-based; conditions: 2% sugar added to BP medium, 18 h incubation at 30°C
Description: (§1) Isomaltulose production was tested using cells grown in LB and in a basal peptone medium (BP, comprising 1% BBL gelysate peptone and 0.5% NaCl, adjusted to pH 7.0 prior to autoclaving). Glucose, fructose, sucrose, lactose, maltose or isomaltulose was added to the cooled media, from a filter-sterilised stock. The media containing 4% (w/v) sucrose are referred to as SLB and SBP respectively.
(§2) Inoculum of 100 μL from a culture grown for 12 h in LB medium was added to 25 mL growth medium in a 250 mL flask. After 18 h at 30° C. on a shaker at 225 rpm, OD600 was used to measure growth. Cultures were diluted with growth medium to OD600=1.50 (approximately half the cell density of a saturated culture in SLB). Aliquots of 1 mL were harvested by centrifugation at 5000×g for 10 min and washed three times with 0.1 M citrate/phosphate buffer (pH 6.0). The cell pellets were resuspended in 0.4 mL of 0.1 M citrate/phosphate buffer (pH 6.0) containing 50% sucrose (w/v). Culture supernatant was filtered through a 0.2 μm filter (Pall Acrodisc), and 0.1 mL was mixed with 0.4 mL of 0.1 M citrate/phosphate buffer (pH 6.0) containing 50% sucrose (w/v), for parallel testing of culture filtrate and harvested cells in the SI assay.

[2] = tested on: purified SI from Klebsiella sp. 14S; experiment: Inhibition of isomaltulose production by glucose and fructose; type: biochemical; conditions: 277 mM glucose or fructose
Description: (§3) SI activity was measured by incubating the purified enzyme with different sucrose concentrations (3, 6, 15, 58, 146, 292, 584, 877, 1169 and 1461 mM) under standard assay conditions, and also with addition of glucose, fructose or both to a final concentration of 277 mM. Data were analyzed according to the method of Lineweaver and Burk (Voet and Voet, 1995) to calculate Km and Vmax values.

[3] = tested on: purified SI from P. dispersa 68J; experiment: as above; type: biochemical; conditions: 277 mM glucose or fructose
Description: as §3

[4] = tested on: P. rubrum sucrose isomerase (SI); conditions: Nagai et al., 1994; Véronèse and Perlot, 1998; cited from earlier work
[5] = tested on: E. rhapontici sucrose isomerase (SI); conditions: Nagai et al., 1994; Véronèse and Perlot, 1998; cited from earlier work
[6] = target: T1, Pantoea dispersa 68J sucrose isomerase (SI), mature, SEQ ID NO: 10, carboxy-terminal 6×His tag (SEQ ID NO: 52) (Pantoea dispersa, UniProt Q6XNK6); experiment: Sucrose isomerase kinetics, purified SI from P. dispersa 68J (isomaltulose production), with or without glucose/fructose; type: biochemical; conditions: glucose vs fructose, 0.277 M, various sucrose concentrations
T1 sequence (Q6XNK6 34-598): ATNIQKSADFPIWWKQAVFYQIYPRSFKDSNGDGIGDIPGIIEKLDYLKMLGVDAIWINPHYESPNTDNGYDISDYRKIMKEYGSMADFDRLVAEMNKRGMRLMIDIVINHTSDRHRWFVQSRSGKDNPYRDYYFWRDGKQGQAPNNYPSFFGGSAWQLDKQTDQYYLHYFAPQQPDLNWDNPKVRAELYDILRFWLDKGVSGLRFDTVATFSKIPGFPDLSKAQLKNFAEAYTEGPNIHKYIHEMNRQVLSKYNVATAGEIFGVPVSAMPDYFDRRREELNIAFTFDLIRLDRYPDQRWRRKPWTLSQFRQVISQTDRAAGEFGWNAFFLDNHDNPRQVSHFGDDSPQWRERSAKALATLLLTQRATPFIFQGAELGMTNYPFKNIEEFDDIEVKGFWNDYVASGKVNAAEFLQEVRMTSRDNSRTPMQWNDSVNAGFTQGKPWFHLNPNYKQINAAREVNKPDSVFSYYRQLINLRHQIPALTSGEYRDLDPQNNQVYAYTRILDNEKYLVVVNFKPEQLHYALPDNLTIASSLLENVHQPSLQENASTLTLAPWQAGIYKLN
Description: (§4) The pET24b vector introduces a carboxy-terminal 6×His tag (SEQ ID NO: 52) on expressed proteins, which were purified by adsorption to Ni-NTA agarose (Qiagen) and elution with 25 mM NaH2PO4, 150 mM NaCl, 125 mM imidazole buffer (pH8.0) following the manufacturer's instructions. For storage, the eluted solution was diluted with 50% glycerol. The purity of SI proteins was tested by SDS-PAGE as described below. A batch procedure using Ni-NTA agarose in suspension yielded predominantly (80-95%) SI with a background of several other protein bands. A procedure using Ni-NTA agarose in adsorption columns yielded preparations containing a single protein band. Unless otherwise specified, this is the form of the purified SI enzymes used for biochemical characterisation.
(§5) Enzyme activities were measured by incubating 5 μl of purified enzyme with 95 μL of sucrose solution at a final concentration of 584 mM in 0.1 M citrate/phosphate buffer (pH 6.0) at 30° C. Sugar profiles in the reaction mix were analysed at intervals by CE as described previously. One unit (U) of SI activity was defined as the amount of enzyme that could release 1 μmol of isomaltulose in one minute at the initial stage of the reaction.
as §3

[7] = tested on: K. plymuthica sucrose isomerase (SI); conditions: Nagai et al., 1994; Véronèse and Perlot, 1998; cited from earlier work
[8] = tested on: P. mesoacidophila sucrose isomerase (SI); conditions: Nagai et al., 1994; Véronèse and Perlot, 1998; cited from earlier work
[9] = target: T2, Klebsiella sp. 14S sucrose isomerase (SI), carboxy-terminal 6×His tag (SEQ ID NO: 52) (Klebsiella planticola, UniProt Q6XKX6); experiment: Sucrose isomerase kinetics, purified SI from Klebsiella sp. 14S (isomaltulose production), with or without glucose/fructose; type: biochemical; conditions: glucose vs fructose, 0.277 M, various sucrose concentrations
T2 sequence (Q6XKX6 29-598): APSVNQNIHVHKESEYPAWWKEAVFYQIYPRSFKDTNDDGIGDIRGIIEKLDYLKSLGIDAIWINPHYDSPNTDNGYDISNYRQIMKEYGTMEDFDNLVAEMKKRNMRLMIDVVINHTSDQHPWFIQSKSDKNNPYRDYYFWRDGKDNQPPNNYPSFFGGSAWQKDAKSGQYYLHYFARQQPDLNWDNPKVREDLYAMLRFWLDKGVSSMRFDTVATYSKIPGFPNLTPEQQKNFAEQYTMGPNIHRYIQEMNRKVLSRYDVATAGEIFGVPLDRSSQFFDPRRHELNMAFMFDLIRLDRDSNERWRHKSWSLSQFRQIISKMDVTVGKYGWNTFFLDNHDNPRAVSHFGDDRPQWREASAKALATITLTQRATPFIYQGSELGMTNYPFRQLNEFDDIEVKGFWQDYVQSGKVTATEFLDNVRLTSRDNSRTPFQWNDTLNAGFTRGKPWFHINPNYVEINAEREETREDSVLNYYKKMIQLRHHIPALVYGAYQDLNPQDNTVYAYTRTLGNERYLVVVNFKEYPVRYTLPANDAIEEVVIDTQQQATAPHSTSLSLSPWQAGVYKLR
Description: as §4, with “Unless otherwise specified, this is the form of the purified SI enzymes used for biochemical characterisation.” left out
Enzyme activities were measured by incubating 5 μl of purified enzyme with 95 μL of sucrose solution at a final concentration of 584 mM in 0.1 M citrate/phosphate buffer (pH 6.0) at 30° C. Sugar profiles in the reaction mix were analysed at intervals by CE as described previously. […]
as §3

[10] = tested on: E. rhapontici WAC2928; experiment: Growth in BP medium with different sugars; type: cell-based; conditions: 2% sugar added to BP medium, 18 h incubation at 30°C
Description: as §1, §2

[11] = Storage stability of purified SI proteins; type: physicochemical; conditions: elution buffer diluted with 50% glycerol
Description: The purified fresh enzymes from SDS-PAGE had specific activities for isomaltulose production of: E. rhapontici: 35 U mg^−1 protein, Klebsiella sp.: 95 U mg^−1 protein and P. dispersa: 632 U mg^−1 protein. The purified SI from E. rhapontici lost function during overnight storage at −20° C. in elution buffer diluted with 50% glycerol. In contrast, the purified enzymes from 14S or P. dispersa retained 100% of the fresh enzyme efficiency for isomaltulose production after 6-month storage at −20° C., or 60% after 15-day storage at room temperature in the same buffer. Because of instability, the E. rhapontici SI was not characterised further in purified form. Cheetham et al., (1984) found substantial differences between E. rhapontici strains for SI stability in immobilized cells, and the enzyme from strain NCPPB 1578 was stable in purified form (Cheetham, 1984).
as §4

[12] = Assay of isolated (purified) SI enzyme activity; type: biochemical; conditions: purified fresh His-tagged enzymes
Description: as §4, §5
The enzymes were incubated with sucrose at different pH ranging from 2.0 to 10.6. The solution of pH 2.0 was buffered in 0.2 M KCl; pH 3.0 to pH 9.0 were in 0.1 M citrate/phosphate buffer; pH 10.0 to pH 10.6 were in 0.2 M glycine buffer. The effect of temperature from 10° C. to 70° C. was measured at pH 6.0. […]

[13] = Conversion of sucrose to isomaltulose in transgenic sugarcane callus expressing SI genes; type: cell-based; conditions: cell extracts of transgenic sugarcane callus; 3 of 3 68J lines, 3 of 7 14S lines
Text: The sucrose isomerase (SI) gene insert in the pET 24b vector was further cloned between the Ubi promoter from the maize ubi-l gene (Christensen and Quail, 1996, Transgen. Res. 5: 215-218) and the Agrobacterium nos terminator (Bevan et al., 1983, Nature 304: 183-187) to drive expression in sugarcane cells.
Plasmids with the sucrose isomerase genes (pU3ZErw, pU3Z14s or pU3Z68J) and the aph A construct plasmid pEmuKN (as a selectable marker) were isolated by alkaline extraction (Sambrook et al., 1989, supra), and dissolved in TE buffer. Plasmid intactness and absence of genomic DNA or RNA were checked by gel electrophoresis and concentration was measured by spectrophotometry. The sucrose isomerase (UbiSI) gene construct and selectable marker construct were co-precipitated onto tungsten microprojectiles and introduced into sugarcane callus, followed by selection for transformed callus, and regeneration of transgenic plants, essentially described by Bower et al. (1996, Molec. Breed. 2: 239-249).
Precipitation reactions were conducted by adding the following at 4° C. in turn to a 1.5 mL microfuge tube: 5 μL pEmuKN plasmid DNA (1 mg/mL), 5 μL UbiSI plasmid DNA (1 μg/μL), 50 μL tungsten (Bio-Rad M10, 100 μg/μL), 50 μL CaCl2 (2.5M), 20 μL spermidine (100 mM free base). […]

Q: Which “effect on growth of P. dispersa 68J” value [1] does the source give for `O=C(CO)[C@@H](O)[C@H](O)[C@H](O)CO` [fructose] here?
A: Its value is “supported faster growth”.

Q: What about the “mode of inhibition of isomaltulose production” value [2] of the same molecule?
A: The value was “competitive inhibitors”.

Q: And the “mode of inhibition of isomaltulose production” value [3]?
A: Its value is “competitive inhibitors”.

Q: Which Inhibition of activity [4] does the source give for `OC[C@H]1OC(O)[C@H](O)[C@@H](O)[C@@H]1O` (some centres unmarked) [glucose] here?
A: Its Inhibition of activity is “inhibit activity”.

Q: And the Inhibition of activity [5]?
A: The Inhibition of activity was “inhibit activity”.

Q: And the Relative inhibition [6]?
A: Its Relative inhibition is “stronger inhibition than fructose”.

Q: What about the Inhibition of activity [7] of the same molecule?
A: The Inhibition of activity was “inhibit activity”.

Q: What about the Inhibition of activity [8] of the same molecule?
A: The Inhibition of activity was “inhibit activity”.

Q: What about the Relative inhibition [9] of the same molecule?
A: Its Relative inhibition is “stronger inhibition than fructose”.

Q: With `OC[C@H]1O[C@H](OC[C@H]2OC(O)(CO)[C@@H](O)[C@@H]2O)[C@H](O)[C@@H](O)[C@@H]1O` (stereo partly drawn) [isomaltulose, α-D-glucopyranosyl-1,6-D-fructofuranose] as the molecule, how does the “effect on growth of E. rhapontici WAC2928” value [10] read?
A: Its value is “substantially enhanced growth”.

Q: What about the “effect on growth of P. dispersa 68J” value [1] of the same molecule?
A: Its value is “little effect”.

B1: Erwinia rhapontici: sucrose isomerase cloned from Erwinia rhapontici WAC2928, SEQ ID NO: 2, mature polypeptide SEQ ID NO: 4 (protein, listed as Erwinia rhapontici)
chain: MSSQELKAAVAIFLATTFSATSYQACSAGPDTAPSLTVQQSNALPTWWKQAVFYQVYPRSFKDTNGDGIGDLNGIIENLDYLKKLGIDAIWINPHYDSPNTDNGYDIRDYRKIMKEYGTMEDFDRLISEMKKRNMRLMIDIVINHTSDQHAWFVQSKSGKNNPYRDYYFWRDGKDGHAPNNYPSFFGGSAWEKDDKSGQYYLHYFAKQQPDLNWDNPKVRQDLYDMLRFWLDKGVXGLRFDTVATYSKIPNFPDLSQQQLKNFAEEYTKGPKIHDYVNEMNREVLSHYDIATAGEIFGVPLDKSIKFFDRRRNELNIAFTFDLIRLDRDADERWRRKDWTLSQFRKIVDKVDQTAGEYGWNAFFLDNHDNPRAVSHFGDDRPQWREHAAKALATLTLTQRATPFIYQGSELGMTNYPFKKIDDFDDVEVKGFWQDYVETGKVKAEEFLTNVRQTSRDNSRTPFQWDASKNAGFTSGTPWLKINPNYKEINSADQINNPNSVFNYYRKLINIRHDIPALTYGSYIDLAPDNNSVYAYTRTFGAEKYLVVINFKEEVMHYTLPGDLSINKVITENNSHTIVNKNDVEDPRGATSVCSPFQAQKRPGDPGYSAAHSIRFLPRFFASYRGDIHAFK
modifications: not fully specified; sig_peptide (1)..(36); mat_peptide (37)..(632); MOD_RES (200)..(200) Any amino acid
Q: Which “function after overnight storage at −20° C.” value [11] does the source give for B1 here?
A: Its value is “lost function”.

Q: And the “specific activity for isomaltulose production” value [12]?
A: The value was 35 U mg^−1 protein.

Q: What about the “isomaltulose peak relative to sucrose peak on the CE electrograph” value [13] of the same molecule?
A: Its value is “even lower isomaltulose levels than the 14S lines”.
